# Laboratory results: patent publication US8034908B2, “Glycolipids and synthetic method thereof as well as their synthetic intermediates, and synthetic method thereof” (Japan as Represented by President of National Center of …, priority 2003, dated 2011)
# Experiments:
# [1] = system: Splenocytes; experiment: Test of production of cytokines by glycolipid derivative (in vitro), mouse splenocytes, ELISA; assay type: cell-based, C57BL/6 mice; details: for IFN-γ / IL-4: glycolipid 100 ng/ml, 72 hours culture, culture supernatant, ELISA
# Method: Test of Production of Cytokines by Glycolipid Derivative (In Vitro)
# Splenocytes were prepared from the spleens of C57BL/6 mice (6 to 8 weeks old, female) and suspended in a RPMI1640 medium (purchased by Nakarai) containing 10% fetal bovine serum (purchased by GIBCO), 5×10-^5M 2-mercaptoethanol (purchased by GIBCO), 1 mM pyruvate (purchased by SIGMA), and 25 mM HEPE (purchased by SIGMA). These were seeded on a 96-well flat bottom plate (purchased by IWAKI) in an amount of 5×10e5 cells/well and a glycolipid derivative was added to each at a final concentration of 100 ng/ml. The results were cultured at 37° C. in the presence of 5% CO2 for 72 hours, then the culture supernatent was collected. The concentration of the IL-4 and IFN-γ in the culture supernatent were measured by ELISA (BD Pharmingen EIA Kit) (Table 2).
# [2] = system: NKT cells; details: cited from earlier work
# [3] = system: mouse experimental autoimmunological encephalomyelitis (EAE) model; details: oral administration; cited from earlier work
smiles,measurement,setting,value
"CCCCCCCCCCCCCCCCCCCCCCC(=O)N[C@@H](COC1OC(CO)C(O)C(O)C1O)[C@H](O)[C@H](O)CC (stereo partly drawn) [Compound 112, 2-tricosanoylamino-1-O-α-D-galactopyranosyl-D-ribo-1,3,4-hexanetriol]",IFN-γ,[1],5832 pg/mL
same,IL-4,[1],237 pg/mL
CCCCCCCCCCCCCCOc1ccc(CCCCC(=O)N[C@@H](COC2OC(CO)C(O)C(O)C2O)[C@H](O)[C@H](O)CCCCC)cc1 (some centres unmarked) [Compound 127],IFN-γ,[1],2506 pg/mL
same,IL-4,[1],159 pg/mL
"CCCCCCCCCCCCCCCCCCCCCCC(=O)N[C@@H](CO[C@H]1O[C@H](CO)[C@H](O)[C@H](O)[C@H]1O)[C@H](O)[C@H](O)CCCCCC [Compound 114, 2-tricosanoylamino-1-O-α-D-galactopyranosyl-D-ribo-1,3,4-decanetriol]",IFN-γ,[1],8067 pg/mL
same,IL-4,[1],225 pg/mL
"CCCCCCCCCCCCCCCCCCCCCC(=O)N[C@@H](COC1OC(CO)C(O)C(O)C1O)[C@H](O)[C@H](O)CCCCCC (stereo partly drawn) [Compound 113, 2-docasanoylamino-1-O-α-D-galactopyranosyl-D-ribo-1,3,4-decanetriol]",IFN-γ,[1],7967 pg/mL
same,IL-4,[1],251 pg/mL
"CCCCCCCCCCCCCCCCCCCCCCCC(=O)N[C@@H](COC1OC(CO)C(O)C(O)C1O)[C@H](O)[C@H](O)Cc1ccc(C)cc1 (stereo partly drawn) [Compound 117, 5-(4-methylphenyl)-2-tetracosanoylamino-1-O-α-D-galactopyranosyl-D-ribo-1,3,4-pentanetriol]",IFN-γ,[1],5485 pg/mL
same,IL-4,[1],181 pg/mL
"CCCCCCCCCCCCCCCCCCCCCCCC(=O)N[C@@H](COC1OC(CO)C(O)C(O)C1O)[C@H](O)[C@H](O)CCc1ccccc1 (stereo partly drawn) [Compound 115, 6-phenyl-2-tetracosanoylamino-1-O-α-D-galactopyranosyl-D-ribo-1,3,4-hexanetriol]",IFN-γ,[1],2481 pg/mL
same,IL-4,[1],137 pg/mL
CCCCCCCCCCCCCCCCCCCCCCCC(=O)N[C@@H](COC1OC(CO)C(O)C(O)C1O)[C@H](O)[C@H](O)CCCCC (some centres unmarked) [OCH],Cytokines produced by NKT cells (in words),[2],more selectively promotes the production of IL-4
same,Effect in EAE model (in words),[3],effected in oral administration
"CCCCCCCCCCCCCCCCCCCCCCCC(=O)N[C@@H](COC1OC(CO)C(O)C(O)C1O)[C@H](O)[C@H](O)CC1CCCC1 (stereo partly drawn) [Compound 116, 5-cyclopentyl-2-tetracosanoylamino-1-O-α-D-galactopyranosyl-D-ribo-1,3,4-pentanetriol]",IFN-γ,[1],5268 pg/mL
same,IL-4,[1],226 pg/mL
"CCCCCCCCCCCCCCCCCCCCCCCC(=O)N[C@@H](CO[C@H]1O[C@H](CO)[C@H](O)[C@H](O)[C@H]1O)[C@H](O)[C@H](O)CCCCC.O [Compound 129, 2-tetracosanoylamino-1-O-α-D-galactopyranosyl-D-ribo-1,3,4-nonanetriol 1-hydrate]",IFN-γ,[1],7179 pg/mL
same,IL-4,[1],232 pg/mL
"CCCCCCCCCCCCCCCCCCCCCC(=O)N[C@@H](COC1OC(CO)C(O)C(O)C1O)[C@H](O)[C@H](O)CCC (stereo partly drawn) [Compound 111, 2-docasanoylamino-1-O-α-D-galactopyranosyl-D-ribo-1,3,4-heptanetriol]",IFN-γ,[1],7413 pg/mL
same,IL-4,[1],256 pg/mL
"CCCCCCCCCCCCCCCCCCCCCCC(=O)N[C@@H](COC1OC(CO)C(O)C(O)C1O)[C@H](O)[C@H](O)CCCC (stereo partly drawn) [Compound 110, 2-tricosanoylamino-1-O-α-D-galactopyranosyl-D-ribo-1,3,4-octanetriol]",IFN-γ,[1],10614 pg/mL
same,IL-4,[1],226 pg/mL
"CCCCCCCCCCCCCCCCCCCCCCCCCC(=O)N[C@@H](CO[C@H]1O[C@H](CO)[C@H](O)[C@H](O)[C@H]1O)[C@H](O)[C@H](O)CCCCCCCCCCCCCC [α-Galcer, (2S,3S,4R)-1-O-(α-D-galactosyl)-2-(N-hexacosanoylamino)-1,3,4-octadecanetriol, reference compound]",Cytokines produced by NKT cells (in words),[2],causes NKT cells to produce IFN-γ and IL-4
same,IFN-γ producing activity (in words),"[1]; compared with α-GalCer, Table 2",IFN-γ was produced remarkably dominantly
same,IFN-γ,[1],21900 pg/mL
same,IL-4,[1],201 pg/mL
